The record followed here is patent publication US10654814B2, “Bicyclic hydroxamic acids useful as inhibitors of mammalian histone deacetylase activity” (KANCERA AB, priority 2015, dated 2020).

SMILES strings stand for the structures. Where two headings read alike, the source gives them in different places.

The target of one assay is HDAC8 (Homo sapiens (Human), UniProt Q9BY41). Nature of the assay: HDAC8 in vitro enzymatic assay (fluorescence). Format: biochemical. The settings on record: Table 4 selectivity profiling. On the procedure:
(§1) Biological Tests Method for Measurement of Enzymatic Activity of HDACs Materials & Methods
(§2) All Examples were tested in HDAC1,2,3,6 and 8 in vitro enzymatic assays. The assay principle is well known (Hauser et al. 2009, Bradner et al. 2010) and all necessary reagents like enzymes, substrates, developer and reference compounds are commercially available (see e.g. BPS Biosciences http://www.bpsbioscience.com/). Stock solutions (10 mM in DMSO) of compounds were serially diluted 1:3 in 11 concentrations with a top concentration of 200 μM for HDAC1,2,3 and 2 μM for HDAC6 and HDAC8. The enzymatic reactions were conducted in a mixture containing assay buffer, bovine serum albumin, HDAC substrate, and a test compound. After enzymatic reaction, developer was added and after an additional incubation time, fluorescence intensity was measured at an excitation wavelength of 360 nm and an emission wavelength of 460 nm. All experiments were performed in duplicate.

The next assay concerns the target HDAC2 (Homo sapiens (Human), UniProt Q92769). The assay can be described thus: HDAC2 in vitro enzymatic assay (fluorescence). Format: biochemical. The following applies: Table 4 selectivity profiling. On the procedure: as §1, §2
For assay [1], the system named is U266 (multiple myeloma) cells. Nature of the assay: CellTiter-Blue cell viability assay, U266. Format: cell-based. The settings on record: Homo sapiens, U-266; 72 hours of treatment. On the procedure: (§3) Method for Measurement of Cell Viability
(§4) The CellTiter-Blue® Cell Viability Assay (Promega) provides a homogeneous, fluorometric method for estimating the number of viable cells present in multi-well plates. The assay uses the indicator dye resazurin to measure the metabolic capacity of cells. Viable cells retain the ability to reduce resazurin into resorufin, which is highly fluorescent.
(§5) Stock solutions (10 mM in DMSO) of compounds were serially diluted 1:2 in 11 concentrations. 50 nL/well (10 mM compound stock in DMSO) was acoustically dispensed in 384-well assay plates with an acoustic dispenser (EDC Biosystems ATS-100AV). Final starting concentration in the assay was 20 μM (0.2% DMSO) for test compounds. The following cell-lines (and origin) have been primarily used: PaCa2 (pancreatic), U266 (multiple myeloma), AMO-1 (plasmacytoma), and MDA-MB-231 (breast adenocarcinoma). PBMCs (peripheral blood mononuclear cells) from healthy donors were used as control cells. Cells were seeded in assay plates (384-well black/clear, Greiner #781091) pre-dispensed with compounds, 25 μL/well, and cultured for 72 hours. After 72 hours, Celltiter Blue reagent (Promega # G8081) was diluted 1:10 with PBS and then added to wells (5 μL/well). The plates were incubated for 2 hours following addition of reagent. The plates were read in an EnVision fluorescence reader (PerkinElmer) with Ex544 nm/Em590 nm. Results were calculated as % cell viability compared to background (cells treated with 0.2% DMSO).

Assay [2] concerns PBMCs (peripheral blood mononuclear cells) from healthy donors. Nature of the assay: CellTiter-Blue cell viability assay, healthy PBMC. Format: cell-based. The following applies: 72 hours of treatment. On the procedure: as §3, §4, §5
In the next assay the target is HDAC6 (Homo sapiens (Human), UniProt Q9UBN7). The assay can be described thus: HDAC6 in vitro enzymatic assay (fluorescence). Format: biochemical. The gist of the method:
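Fluorogenic HDAC substrate reactions contained assay buffer, BSA and compound, followed by developer. Fluorescence was read at ex 360/em 460 nm. Compounds were tested as 11-point 1:3 dilutions from a top of 200 μM for HDAC1, 2 and 3, and from 2 μM for HDAC6, in duplicate.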

In another assay the target is HDAC3 (Homo sapiens (Human), UniProt O15379). The assay can be described thus: HDAC3 in vitro enzymatic assay (fluorescence). Format: biochemical. The settings on record: Table 4 selectivity profiling. As for the experimental part: as §1, §2
Sequence of HDAC3 (O15379 whole entry): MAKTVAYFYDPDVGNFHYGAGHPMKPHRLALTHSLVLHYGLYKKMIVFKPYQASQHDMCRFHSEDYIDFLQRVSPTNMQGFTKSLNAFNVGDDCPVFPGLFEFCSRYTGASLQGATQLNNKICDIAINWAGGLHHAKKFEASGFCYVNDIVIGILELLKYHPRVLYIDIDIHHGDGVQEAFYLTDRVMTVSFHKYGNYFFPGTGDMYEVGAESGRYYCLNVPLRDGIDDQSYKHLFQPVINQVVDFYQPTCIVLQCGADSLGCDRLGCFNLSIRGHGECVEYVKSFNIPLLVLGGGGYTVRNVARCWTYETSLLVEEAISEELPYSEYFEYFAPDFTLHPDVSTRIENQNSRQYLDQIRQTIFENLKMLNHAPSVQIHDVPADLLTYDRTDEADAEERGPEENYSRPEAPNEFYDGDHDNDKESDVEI
Sequence of HDAC3 (Q9Y618 395-489 partner): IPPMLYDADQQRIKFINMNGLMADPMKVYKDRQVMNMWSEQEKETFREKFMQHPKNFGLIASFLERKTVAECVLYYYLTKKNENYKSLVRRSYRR
For the next assay, the system named is PaCa2 (pancreatic) cells. The assay can be described thus: CellTiter-Blue cell viability assay, PaCa2. The settings on record: PaCa-2; 72 hours of treatment. Format: cell-based. On the procedure: as §3, §4, §5
Assay [3] has as its system MDA-MB-231 (breast adenocarcinoma) cells. Nature of the assay: CellTiter-Blue cell viability assay, MDA-MB-231. Format: cell-based. The settings on record: Homo sapiens, 72 hours of treatment. As for the experimental part: as §3, §4, §5
For assay [4], the system named is AMO-1 (plasmacytoma) cells. The assay can be described thus: CellTiter-Blue cell viability assay, AMO-1. Format: cell-based. The following applies: Homo sapiens, AMO1; 72 hours of treatment. On the procedure:
as §3, §4, §5

A further assay has as its target HDAC1 (Homo sapiens (Human), UniProt Q13547). The assay can be described thus: HDAC1 in vitro enzymatic assay (fluorescence). Format: biochemical. The following applies: Table 4 selectivity profiling. On the procedure:
as §1, §2

For assay [5], the system named is multiple myeloma cell line U266. Nature of the assay: Annexin V apoptosis assay (flow cytometry), U266. Format: cell-based. The settings on record: 72 hours, relative to 0.2% DMSO. From the text: (§6) Method for Measurement of Apoptosis
(§7) The Annexin A5 (or Annexin V) affinity assay provides a method to quantify the number of cells undergoing apoptosis. The assay uses the protein annexin A5 conjugated to fluorescein (FITC Annexin V) and the fluorescent dye propidium iodide (PI) to label early apoptotic (annexin V positive, PI negative) and necrotic/dead cells (annexin V positive, PI positive) quantified by flow cytometry. The annexin A5 protein binds to membrane surfaces containing negatively charged phoshpolipids (phosphatidylserine) which are exposed by apoptotic and dead cells, but not by normal cells. PI binds to nucleic acids in cells which have completely lost the integrity of their plasma membrane, i.e. necrotic cells.
(§8) Standard Annexin V assay protocol was followed (see e.g. http://www.biolegend.com/pop_pdf.php?id=5161 and application references therein). 10,000 cells of each cell line were cultured in 400 μl of medium in 48 well plates. Compounds from 10 mM DMSO stock solutions were added to cells (DMSO content was 0.2%) and incubated for 48 or 72 hours followed by addition of FITC-Annexin V (BioLegend) and PI staining solution (BD Biosciences). The cells were analyzed by flow cytometry, at least 4,000 single cells were analyzed. Compounds were tested either individually at four different concentrations (1, 2.5, 5 and 10 μM) or in combination with 1 μM dexamethasone.
(§9) Annexin V assay results for one compound of the invention (Example 1) with and without 1 μM dexamethasone for the multiple myeloma cell lines OPM-2 and U266 are given in Table 6. In Table 6, the % apoptosis values with compound(s) present are relative to the absence of compounds (only 0.2% DMSO present).

Assay [6] has as its system multiple myeloma cell line OPM-2. Nature of the assay: Annexin V apoptosis assay (flow cytometry), OPM-2. Format: cell-based. The settings on record: 72 hours, relative to 0.2% DMSO.
Source text: as §6, §7, §8, §9

[7] abbreviates: Table 3, read-out: IC50 (nM) for inhibition of HDAC6.
The mark [8] stands for this setting: Table 4 selectivity profiling, read-out: IC50 (nM) HDAC6.

Sequence of HDAC6 (Q9UBN7 whole entry): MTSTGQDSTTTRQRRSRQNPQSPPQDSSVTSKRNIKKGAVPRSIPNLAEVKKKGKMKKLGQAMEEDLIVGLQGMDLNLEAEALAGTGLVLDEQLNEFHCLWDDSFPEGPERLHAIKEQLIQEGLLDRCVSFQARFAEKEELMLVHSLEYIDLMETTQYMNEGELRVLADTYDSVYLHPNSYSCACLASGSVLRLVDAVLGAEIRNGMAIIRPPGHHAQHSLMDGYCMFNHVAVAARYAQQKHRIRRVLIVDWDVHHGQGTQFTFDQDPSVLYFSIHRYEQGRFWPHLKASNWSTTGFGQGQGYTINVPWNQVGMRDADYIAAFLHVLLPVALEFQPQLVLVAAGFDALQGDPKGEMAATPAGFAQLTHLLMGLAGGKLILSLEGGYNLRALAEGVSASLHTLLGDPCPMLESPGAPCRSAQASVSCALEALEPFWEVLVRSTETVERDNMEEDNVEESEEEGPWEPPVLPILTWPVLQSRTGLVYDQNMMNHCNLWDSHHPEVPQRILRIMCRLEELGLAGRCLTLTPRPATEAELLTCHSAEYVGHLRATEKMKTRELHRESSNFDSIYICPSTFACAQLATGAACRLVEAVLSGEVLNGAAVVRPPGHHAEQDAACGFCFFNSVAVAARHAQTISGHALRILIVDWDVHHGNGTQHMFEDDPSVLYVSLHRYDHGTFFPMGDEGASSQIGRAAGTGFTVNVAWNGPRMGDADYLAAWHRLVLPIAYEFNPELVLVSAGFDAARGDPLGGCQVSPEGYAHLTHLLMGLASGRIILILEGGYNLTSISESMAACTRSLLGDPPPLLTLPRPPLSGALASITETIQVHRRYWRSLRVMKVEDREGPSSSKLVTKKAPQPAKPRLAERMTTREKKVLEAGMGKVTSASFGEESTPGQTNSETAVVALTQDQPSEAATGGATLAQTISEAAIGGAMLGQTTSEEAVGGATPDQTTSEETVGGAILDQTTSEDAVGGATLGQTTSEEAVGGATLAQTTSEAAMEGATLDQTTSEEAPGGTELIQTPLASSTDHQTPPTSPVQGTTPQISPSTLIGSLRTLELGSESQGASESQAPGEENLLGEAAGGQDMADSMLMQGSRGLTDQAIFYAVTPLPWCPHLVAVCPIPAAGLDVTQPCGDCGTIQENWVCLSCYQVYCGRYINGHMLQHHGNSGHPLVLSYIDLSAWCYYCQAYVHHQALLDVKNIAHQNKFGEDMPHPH
Sequence of HDAC2 (Q92769 whole entry): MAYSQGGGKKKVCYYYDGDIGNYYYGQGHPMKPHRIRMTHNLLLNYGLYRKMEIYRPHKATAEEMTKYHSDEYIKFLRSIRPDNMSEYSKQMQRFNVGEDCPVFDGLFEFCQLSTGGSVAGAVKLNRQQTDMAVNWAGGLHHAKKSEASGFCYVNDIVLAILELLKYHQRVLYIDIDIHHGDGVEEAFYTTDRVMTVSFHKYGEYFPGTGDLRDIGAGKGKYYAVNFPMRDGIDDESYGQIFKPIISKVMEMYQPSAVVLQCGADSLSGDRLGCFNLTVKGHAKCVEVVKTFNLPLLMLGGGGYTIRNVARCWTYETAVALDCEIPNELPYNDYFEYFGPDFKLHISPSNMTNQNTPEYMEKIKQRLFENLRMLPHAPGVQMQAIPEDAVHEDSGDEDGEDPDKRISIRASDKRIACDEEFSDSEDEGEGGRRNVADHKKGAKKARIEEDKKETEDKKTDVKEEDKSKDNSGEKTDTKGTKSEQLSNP
Sequence of HDAC1 (Q13547 whole entry): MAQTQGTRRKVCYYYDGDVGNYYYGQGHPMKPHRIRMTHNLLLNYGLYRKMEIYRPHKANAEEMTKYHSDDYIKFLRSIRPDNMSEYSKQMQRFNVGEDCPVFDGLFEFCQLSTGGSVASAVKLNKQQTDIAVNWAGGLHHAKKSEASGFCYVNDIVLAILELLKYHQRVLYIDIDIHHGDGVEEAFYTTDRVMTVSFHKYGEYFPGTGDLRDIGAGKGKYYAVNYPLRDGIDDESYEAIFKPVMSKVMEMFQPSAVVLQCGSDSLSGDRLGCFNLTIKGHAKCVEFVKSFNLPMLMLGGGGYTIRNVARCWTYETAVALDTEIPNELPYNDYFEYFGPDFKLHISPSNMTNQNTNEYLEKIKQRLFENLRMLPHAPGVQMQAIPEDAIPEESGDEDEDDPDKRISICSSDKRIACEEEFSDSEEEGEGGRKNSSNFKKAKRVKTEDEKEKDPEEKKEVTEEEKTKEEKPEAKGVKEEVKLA
Sequence of HDAC8 (Q9BY41 whole entry): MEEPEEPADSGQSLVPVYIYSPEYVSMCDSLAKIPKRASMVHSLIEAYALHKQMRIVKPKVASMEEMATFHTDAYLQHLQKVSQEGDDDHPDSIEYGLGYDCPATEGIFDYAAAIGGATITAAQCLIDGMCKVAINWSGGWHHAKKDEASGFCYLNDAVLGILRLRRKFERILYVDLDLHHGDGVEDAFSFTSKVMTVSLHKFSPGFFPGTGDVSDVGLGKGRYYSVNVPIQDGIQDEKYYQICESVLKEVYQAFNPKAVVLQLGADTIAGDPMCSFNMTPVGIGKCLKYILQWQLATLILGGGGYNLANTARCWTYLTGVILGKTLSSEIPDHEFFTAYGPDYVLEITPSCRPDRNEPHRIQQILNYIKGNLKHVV

On to `CC(C)c1ccc(-c2nc3cc(C(=O)NO)ccc3s2)cc1` [Example 75, N-Hydroxy-2-[4-(1-methylethyl)phenyl]-1,3-benzothiazole-5-carboxamide], for which the IC50 against HDAC8 was 28 nM; on HDAC2 it was 5500 nM; in assay [1], 0.49 µM; in assay [2] it was greater than 20 µM; at HDAC6 (setting [7]) it was 13 nM; at HDAC6 (setting [8]), 3 nM. Besides, the IC50 against HDAC3 is 500 nM; in the assay on PaCa2 (pancreatic) cells it was 1.3 µM; in assay [3], 0.4 µM; in assay [4], 0.41 µM; against HDAC1, 900 nM.
As for `COc1ccc(-c2ccc(-c3nc4cc(C(=O)NO)ccc4o3)cc2)cn1` [Example 27, N-hydroxy-2-[4-(6-methoxypyridin-3-yl)phenyl]-1,3-benzoxazole-5-carboxamide], the IC50 is greater than 2000 nM on HDAC8; greater than 200000 nM against HDAC2; 0.89 µM in assay [1]; greater than 20 µM in assay [2]; 3 nM at HDAC6 (setting [8]); 820 nM on HDAC3. Also, the IC50 with PaCa2 (pancreatic) cells was 0.81 µM; in [3], 3.1 µM; in assay [4] it was 0.62 µM; against HDAC1, greater than 200000 nM.
`CC(C)c1ccc(Nc2nc3cc(C(=O)NO)ccc3o2)cc1` [Example 43, N-hydroxy-2-{[4-(1-methylethyl)phenyl]amino}-1,3-benzoxazole-5-carboxamide]: the IC50 is 200 nM against HDAC8; greater than 200000 nM at HDAC2; 1.1 µM in assay [1]; greater than 20 µM in assay [2]; 51 nM on HDAC6 (setting [8]); 3500 nM against HDAC3. Besides, the IC50 in the assay on PaCa2 (pancreatic) cells amounted to 1.7 µM; in assay [3], 0.37 µM; in assay [4] it was 0.68 µM; at HDAC1, 5100 nM.
For `CC(C)c1ccc(-c2cc3ccc(C(=O)NO)cc3s2)cc1` [Example 88, N-Hydroxy-2-[4-(1-methylethyl)phenyl]-1-benzothiophene-6-carboxamide], the IC50 against HDAC8 is 1100 nM; against HDAC2, 14000 nM; in [1] it was 0.42 µM; in assay [2] it was greater than 20 µM; at HDAC6 (setting [7]), 37 nM; at HDAC6 (setting [8]), 14 nM. For the same molecule, the IC50 at HDAC3 is 10000 nM; in the assay with PaCa2 (pancreatic) cells it was 0.82 µM; in assay [3] it was 1.1 µM; in assay [4], 0.36 µM; against HDAC1, 26000 nM.
Consider `O=C(NO)c1ccc2oc(-c3ccc(-c4ccccc4F)cc3)nc2c1` [Example 21, 2-(2′-Fluorobiphenyl-4-yl)-N-hydroxy-1,3-benzoxazole-5-carboxamide], for which the IC50 on HDAC8 was 700 nM; against HDAC2, greater than 200000 nM; in assay [1], 0.94 µM; in [2], greater than 20 µM; on HDAC6 (setting [7]), 28 nM; on HDAC6 (setting [8]) it was 28 nM. The IC50 against HDAC3 turned out to be 1800 nM; in the assay on PaCa2 (pancreatic) cells, 1.2 µM; in assay [3] it was 1.1 µM; in [4], 0.64 µM; at HDAC1, 5600 nM.
For the molecule `C[C@@H]1C[C@H]2[C@@H]3CCC4=CC(=O)C=C[C@]4(C)[C@@]3(F)[C@@H](O)C[C@]2(C)[C@@]1(O)C(=O)CO` [DEX, dexamethasone, reference compound], the “% apoptosis U266” value in assay [5] (1 μM DEX alone) is 42%. Besides, the “% apoptosis OPM-2” value in assay [6] (1 μM DEX alone) is reported as 35%.
`COc1ncccc1-c1ccc(-c2nc3cc(C(=O)NO)ccc3o2)cc1` [Example 28, N-hydroxy-2-[4-(2-methoxypyridin-3-yl)phenyl]-1,3-benzoxazole-5-carboxamide]: the IC50 is 700 nM against HDAC8; 28000 nM against HDAC2; 0.62 µM in [1]; greater than 20 µM in assay [2]; 28 nM on HDAC6 (setting [8]); 1800 nM against HDAC3. Moreover, the IC50 with PaCa2 (pancreatic) cells turned out to be 1 µM; in [3], 0.75 µM; in [4] it was 0.38 µM; on HDAC1, 5600 nM.
In the case of `CC(C)(C)c1ccc(-c2nc3cc(C(=O)NO)ccc3s2)cc1` [Example 77, 2-(4-tert-butylphenyl)-N-hydroxy-1,3-benzothiazole-5-carboxamide], the IC50 is 410 nM on HDAC8; 9400 nM against HDAC2; 0.48 µM in assay [1]; greater than 20 µM in assay [2]; 22 nM at HDAC6 (setting [8]); 930 nM on HDAC3. In addition, the half-maximal inhibitory concentration (IC50) in the assay on PaCa2 (pancreatic) cells came to 1.4 µM; in [3], 1.8 µM; in [4] it was 0.34 µM; at HDAC1, 1800 nM.
Turning to `CC(C)c1ccc(-c2nc3cc(C(=O)NO)ccc3o2)cc1` [Example 1, N-Hydroxy-2-[4-(1-methylethyl)phenyl]-1,3-benzoxazole-5-carboxamide], the IC50 against HDAC8 was 1200 nM; at HDAC2 it was 13000 nM; in assay [1], 0.62 µM; in assay [2], greater than 20 µM; at HDAC6 (setting [7]) it was 26 nM; on HDAC6 (setting [8]), 26 nM. In addition, the IC50 was determined as 1700 nM against HDAC3; 0.98 µM in the assay on PaCa2 (pancreatic) cells; 0.65 µM in assay [3]; 0.39 µM in assay [4]; 4000 nM at HDAC1. Besides, the “% apoptosis U266” value is on record as 30% in assay [5] (1 μM Ex. 1 alone), 59% in assay [5] (2.5 μM Ex. 1 alone), 43% in [5] (5 μM Ex. 1 alone) and 88% in assay [5] (10 μM Ex. 1 alone). For the same molecule, the “% apoptosis OPM-2” value is reported as 3% in assay [6] (1 μM Ex. 1 alone), 37% in assay [6] (2.5 μM Ex. 1 alone), 38% in assay [6] (5 μM Ex. 1 alone) and 59% in [6] (10 μM Ex. 1 alone).
Turning to `CC(C)c1ccc(-c2cc3cc(C(=O)NO)ccc3s2)cc1` [Example 89, N-Hydroxy-2-[4-(1-methylethyl)phenyl]-1-benzothiophene-5-carboxamide], the IC50 against HDAC8 was greater than 2000 nM; on HDAC2, 90000 nM; in assay [1] it was 0.43 µM; in assay [2], greater than 20 µM; on HDAC6 (setting [7]), 55 nM; on HDAC6 (setting [8]) it was 26 nM. Moreover, the IC50 against HDAC3 stood at 90000 nM; with PaCa2 (pancreatic) cells, 0.68 µM; in [3] it was 0.81 µM; in assay [4] it was 0.44 µM; at HDAC1, 100000 nM.
